Experimental data reported in ChEMBL document CHEMBL6121007, “Design, synthesis and evaluation of pyrimidine derivatives as sedative-hypnotic agents” (Eur J Med Chem, 2025).
The source made the active and inactive calls. No cut-off for these calls is given here.

Key:
Mus musculus [1] = assay: Sedative-hypnotic activity in mouse assessed as decrease in grip strength score at 0.1 to 2.5 mg/kg, ip administrated as single dose and measured after 30 mins by grip strength test; assay type: functional, organism-based; conditions: dose 0.1-2.5 mg/kg
[2] = Upregulation of kaposi sarcoma-associated herpesvirus infection related genes in hypothalamus of mouse at 2.5 mg/kg, ip measured after 30 mins by KEGG enrichment analysis relative to control; assay type: functional; conditions: 0.5 h
Mus musculus [3] = assay: Sedative-hypnotic activity in mouse assessed as decrease in number of square crossing at 50 mg/kg, ip administrated as single dose and measured after 30 mins by open field test; assay type: functional, organism-based
[4] = Clearance in male Sprague-Dawley rat at 2.5 mg/kg, ip measured after 5 to 1440 mins by LC-MS/MS analysis; assay type: ADME, organism-based; conditions: in vivo, time 5-1440 min
Mus musculus [5] = assay: Sedative-hypnotic activity in mouse assessed as latency time of first step out of center square at 50 mg/kg, ip administrated as single dose and measured after 30 mins by open field test; assay type: functional, organism-based
[6] = Ratio of drug concentration in male mouse brain to plasma at 10 mg/kg, ip measured after 4 hrs by LC-MS/MS analysis; assay type: ADME, organism-based; conditions: brain and plasma, read-out: BPR
Mus musculus [7] = assay: Upregulation of amphetamine addiction related genes in hypothalamus of mouse at 2.5 mg/kg, ip measured after 30 mins by KEGG enrichment analysis relative to control; assay type: functional; conditions: 0.5 h
[8] = Drug concentration in male mouse brain at 10 mg/kg, ip measured after 4 hrs by LC-MS/MS analysis; assay type: ADME, organism-based; conditions: read-out: Ct
[9] = Drug concentration in male mouse brain at 10 mg/kg, ip measured after 2 hrs by LC-MS/MS analysis; assay type: ADME, organism-based; conditions: read-out: Ct
Mus musculus [10] = assay: Upregulation of glycerolipid metabolism related genes in hypothalamus of mouse at 2.5 mg/kg, ip measured after 30 mins by KEGG enrichment analysis relative to control; assay type: functional; conditions: 0.5 h
Mus musculus [11] = assay: Upregulation of ubiquitin mediated proteolysis related genes in hypothalamus of mouse at 2.5 mg/kg, ip measured after 30 mins by KEGG enrichment analysis relative to control; assay type: functional; conditions: 0.5 h
[12] = Upregulation of FoxO signaling pathway related genes in hypothalamus of mouse at 2.5 mg/kg, ip measured after 30 mins by KEGG enrichment analysis relative to control; assay type: functional; conditions: 0.5 h
Mus musculus [13] = assay: Upregulation of arachidonic acid metabolism related genes in hypothalamus of mouse at 2.5 mg/kg, ip measured after 30 mins by KEGG enrichment analysis relative to control; assay type: functional; conditions: 0.5 h
Mus musculus [14] = assay: Upregulation of neurodegeneration-multiple diseases pathways related genes in hypothalamus of mouse at 2.5 mg/kg, ip measured after 30 mins by KEGG enrichment analysis relative to control; assay type: functional; conditions: 0.5 h
Mus musculus [15] = assay: Upregulation of threonine metabolism related genes in hypothalamus of mouse at 2.5 mg/kg, ip measured after 30 mins by KEGG enrichment analysis relative to control; assay type: functional; conditions: 0.5 h
Mus musculus [16] = assay: Upregulation of glycine metabolism related genes in hypothalamus of mouse at 2.5 mg/kg, ip measured after 30 mins by KEGG enrichment analysis relative to control; assay type: functional; conditions: 0.5 h
[17] = Upregulation of MAPK signaling pathway related genes in hypothalamus of mouse at 2.5 mg/kg, ip measured after 30 mins by KEGG enrichment analysis relative to control; assay type: functional; conditions: 0.5 h
[18] = Upregulation of Wnt signaling pathway related genes in hypothalamus of mouse at 2.5 mg/kg, ip measured after 30 mins by KEGG enrichment analysis relative to control; assay type: functional; conditions: 0.5 h
[19] = Apparent volume of distribution in male Sprague-Dawley rat at 0.5 mg/kg, iv measured after 2 to 720 mins by LC-MS/MS analysis; assay type: ADME, organism-based; conditions: in vivo, time 2-720 min, read-out: Vd(app)
Mus musculus [20] = assay: Upregulation of pancreatic secretion related genes in hypothalamus of mouse at 2.5 mg/kg, ip measured after 30 mins by KEGG enrichment analysis relative to control; assay type: functional; conditions: 0.5 h
[21] = AUC (0 to infinity) in male Sprague-Dawley rat at 0.5 mg/kg, iv measured after 2 to 720 mins by LC-MS/MS analysis; assay type: ADME, organism-based; conditions: in vivo, time 2-720 min
Mus musculus [22] = assay: In vivo activation of cAMP/PKA/CREB signaling pathway in mouse assessed as increase in CREB phosphorylation in hypothalamus at 2.5 mg/kg, ip measured after 30 mins by Western blot analysis; assay type: functional, organism-based
Mus musculus [23] = assay: Upregulation of parathyroid hormone synthesis related genes in hypothalamus of mouse at 2.5 mg/kg, ip measured after 30 mins by KEGG enrichment analysis relative to control; assay type: functional; conditions: 0.5 h
[24] = Clearance in male Sprague-Dawley rat at 0.5 mg/kg, iv measured after 2 to 720 mins by LC-MS/MS analysis; assay type: ADME, organism-based; conditions: in vivo, time 2-720 min
Mus musculus [25] = assay: Upregulation of oxytocin signaling pathway related genes in hypothalamus of mouse at 2.5 mg/kg, ip measured after 30 mins by KEGG enrichment analysis relative to control; assay type: functional; conditions: 0.5 h
[26] = Ratio of drug concentration in male mouse brain to plasma at 10 mg/kg, ip measured after 2 hrs by LC-MS/MS analysis; assay type: ADME, organism-based; conditions: brain and plasma, read-out: BPR
[27] = Upregulation of human papillomavirus infection related genes in hypothalamus of mouse at 2.5 mg/kg, ip measured after 30 mins by KEGG enrichment analysis relative to control; assay type: functional; conditions: 0.5 h
[28] = Half life in male Sprague-Dawley rat at 2.5 mg/kg, ip measured after 5 to 1440 mins by LC-MS/MS analysis; assay type: ADME, organism-based; conditions: in vivo, time 5-1440 min
Mus musculus [29] = assay: Upregulation of linoleic acid metabolism related genes in hypothalamus of mouse at 2.5 mg/kg, ip measured after 30 mins by KEGG enrichment analysis relative to control; assay type: functional; conditions: 0.5 h
[30] = Bioavailability in male Sprague-Dawley rat at 2.5 mg/kg, ip measured after 5 to 1440 mins by LC-MS/MS analysis; assay type: ADME, organism-based; conditions: in vivo, time 5-1440 min
Mus musculus [31] = assay: Sedative-hypnotic activity in pentobarbital-induced mouse assessed as increase in sleep duration at 2.5 mg/kg, ip administrated as single dose; assay type: functional, organism-based
Mus musculus [32] = assay: Sedative-hypnotic activity in pentobarbital-induced mouse assessed as asleep rate at 0.5 to 2.5 mg/kg, ip preadministered with compound for 20 mins followed by pentobarbital administration and measured within 15 mins (reference value: 12.5 %); assay type: functional; conditions: dose 0.5-2.5 mg/kg, time <= 35 min
[33] = Drug concentration in male mouse plasma at 10 mg/kg, ip measured after 4 hrs by LC-MS/MS analysis; assay type: ADME, organism-based
Mus musculus [34] = assay: Sedative-hypnotic activity in mouse assessed as increase in latency time of first step out of center square at 0.1 to 2.5 mg/kg, ip administrated as single dose and measured after 30 mins by open field test; assay type: functional, organism-based; conditions: dose 0.1-2.5 mg/kg
Mus musculus [35] = assay: Upregulation of cell cycle related genes in hypothalamus of mouse at 2.5 mg/kg, ip measured after 30 mins by KEGG enrichment analysis relative to control; assay type: functional; conditions: 0.5 h
Mus musculus [36] = assay: Sedative-hypnotic activity in mouse assessed as reduction in grip strength score at 50 mg/kg, ip administrated as single dose and measured after 30 mins by grip strength test; assay type: functional, organism-based
[37] = Upregulation of cytokine-cytokine receptor interaction related genes in hypothalamus of mouse at 2.5 mg/kg, ip measured after 30 mins by KEGG enrichment analysis relative to control; assay type: functional; conditions: 0.5 h

CCn1c2ccccc2c2cc(Nc3ccnc(Nc4ccc(C)c(OC)c4)n3)ccc21
Activity (Mus musculus [1]): Active
Activity [2]: 4.62%
Activity (Mus musculus [3]): Active
CL/F [4]: 12.7 mL/min/kg
Activity (Mus musculus [5]): Active; Significant Effect Observed
Kp at 4 h [6]: 0.31
Activity (Mus musculus [7]): 3.47%
concentration at 4 h [8]: 20.2 ng/mL
concentration at 2 h [9]: 23 ng/mL
Activity (Mus musculus [10]): 2.31%
Activity (Mus musculus [11]): 1.73%
Activity [12]: 4.62%
Activity (Mus musculus [13]): 2.89%
Activity (Mus musculus [14]): 5.78%
Activity (Mus musculus [15]): 1.73%
Activity (Mus musculus [16]): 1.73%
Activity [17]: 6.36%
Activity [18]: 4.05%
Vd [19]: 2.9 L/kg
Activity (Mus musculus [20]): 4.05%
AUC(0-inf) [21]: 885 ng·h/mL
Activity (Mus musculus [22]): Active
Activity (Mus musculus [23]): 4.05%
clearance [24]: 9.53 mL/min/kg
Activity (Mus musculus [25]): 5.2%
Kp at 2 h [26]: 0.38
Activity [27]: 6.36%
half-life [28]: 4.56 h
Activity (Mus musculus [29]): 1.73%
bioavailability [30]: 74.5%
Activity (Mus musculus [31]): Active
Activity (Mus musculus [32]): 100%
concentration at 4 h [33]: 64.7 ng/mL
Activity (Mus musculus [34]): Active
Activity (Mus musculus [35]): 2.89%
Activity (Mus musculus [36]): Active
Activity [37]: 8.09%
